In PubChem BioAssay AID192 (DTP/NCI, 2004) one finds T/C data, which are given here for 32 molecules.

The structures appear in SMILES notation. Values joined by “and” are separate entries in the source; they are usually repeats but may differ in a detail not shown here. Equal values may be shown once. Toxic doses and inconclusive results are not listed.

This test relates to BDF1 mice, B16 melanoma ip, median survival T/C. Description: NCI In Vivo Anticancer Drug Screen. Data for tumor model B16 Melanoma (intraperitoneal) in B6D2F1 (BDF1) mice. To be noted: endpoint: median survival time, higher = longer survival. In outline:
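Read-out: survival or tumor size, given as treated/control ratio. Controls received vehicle only; animals bore transplantable tumors.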

Setting [1] is: dose: 100.0 mg/kg/injection, schedule: Q01DX009 (ip), vehicle: saline with Tween-80.
[2] abbreviates: dose: 200.0 mg/kg/injection, schedule: Q01DX009 (ip), vehicle: saline with Tween-80.
The mark [3] stands for this setting: dose: 400.0 mg/kg/injection, schedule: Q01DX009 (ip), vehicle: saline with Tween-80.
[4] abbreviates: dose: 25.0 mg/kg/injection, schedule: Q01DX009 (ip), vehicle: saline with Tween-80.
Where [5] appears, read: dose: 50.0 mg/kg/injection, schedule: Q01DX009 (ip), vehicle: saline with Tween-80.
Where [6] appears, read: dose: 25.0 mg/kg/injection, schedule: Q01DX009 (ip), vehicle: Klucel (hydroxypropylcellulose) (HPC).
Where [7] appears, read: dose: 25.0 mg/kg/injection, schedule: Q04DX003 (ip), vehicle: Klucel (hydroxypropylcellulose) (HPC).
[8] abbreviates: dose: 50.0 mg/kg/injection, schedule: Q01DX009 (ip), vehicle: Klucel (hydroxypropylcellulose) (HPC).
Where [9] appears, read: dose: 50.0 mg/kg/injection, schedule: Q04DX003 (ip), vehicle: Klucel (hydroxypropylcellulose) (HPC).
Where [10] appears, read: dose: 100.0 mg/kg/injection, schedule: Q01DX009 (ip), vehicle: Klucel (hydroxypropylcellulose) (HPC).
The mark [11] stands for this setting: dose: 100.0 mg/kg/injection, schedule: Q04DX003 (ip), vehicle: Klucel (hydroxypropylcellulose) (HPC).
[12] abbreviates: dose: 200.0 mg/kg/injection, schedule: Q01DX009 (ip), vehicle: Klucel (hydroxypropylcellulose) (HPC).
[13] abbreviates: dose: 400.0 mg/kg/injection, schedule: Q01DX009 (ip), vehicle: Klucel (hydroxypropylcellulose) (HPC).
The mark [14] stands for this setting: dose: 25.0 mg/kg/injection, schedule: Q01DX009 (ip), vehicle: saline.
[15] abbreviates: dose: 50.0 mg/kg/injection, schedule: Q01DX009 (ip), vehicle: saline.
The mark [16] stands for this setting: dose: 100.0 mg/kg/injection, schedule: Q01DX009 (ip), vehicle: saline.
The mark [17] stands for this setting: dose: 12.5 mg/kg/injection, schedule: Q01DX009 (ip), vehicle: saline.
[18] abbreviates: dose: 200.0 mg/kg/injection, schedule: Q04DX003 (ip), vehicle: Klucel (hydroxypropylcellulose) (HPC).
Setting [19] is: dose: 400.0 mg/kg/injection, schedule: Q04DX003 (ip), vehicle: Klucel (hydroxypropylcellulose) (HPC).

As to `CCOC(=O)CCCc1c[nH]c2ccccc12`, the T/C under setting [1] is 107 % of control; the T/C (dose: 100.0 mg/kg/injection, schedule: Q04DX003 (ip), vehicle: saline with Tween-80) was 109 % of control; the T/C under setting [2] is 115 % of control; the T/C (dose: 200.0 mg/kg/injection, schedule: Q04DX003 (ip), vehicle: saline with Tween-80) is 93 % of control; the T/C under setting [3] was 107 % of control; the T/C (dose: 400.0 mg/kg/injection, schedule: Q04DX003 (ip), vehicle: saline with Tween-80) was 95 % of control.
Regarding `[Cl][Pt+2][Cl].[NH-]CC(=O)O.[NH-]CC(=O)O`, the T/C runs as follows: under setting [4], 97 % of control; under setting [5], 92 % of control.
For `CN(Cc1ccccc1)Cc1ccccc1`, the T/C by setting is: under setting [6], 96 % of control; under setting [7], 100 % of control; under setting [8], 100 % of control; under setting [9], 97 % of control; under setting [10], 100 % of control; under setting [11], 97 % of control.
Take `OCCOc1c(Cl)c(Cl)c(Cl)c(Cl)c1Cl`: the T/C under setting [4] was 100 % of control, the T/C under setting [5] is 92 % of control and the T/C under setting [1] was 97 % of control.
Regarding `Cc1c(NC=O)c(=O)n(-c2ccccc2)n1C`, the T/C under setting [10] was 100 % of control, the T/C under setting [12] was 100 % of control and the T/C under setting [13] is 96 % of control.
For `CC(C)C(C(=O)c1ccccc1)C(c1ccccc1)c1ccccc1` (stereo not drawn), the T/C is, setting by setting: (dose: 100.0 mg/kg/injection, schedule: Q04DX003 (ip), vehicle: other) 92 % of control; (dose: 200.0 mg/kg/injection, schedule: Q04DX003 (ip), vehicle: other) 94 % of control.
With `O=NN(CCF)C(=O)N[C@H]1CCCC[C@H]1O`, the T/C by setting is: (dose: 3.75 mg/kg/injection, schedule: Q01DX001 (ip), vehicle: saline) 100 % of control; (dose: 7.5 mg/kg/injection, schedule: Q01DX001 (ip), vehicle: saline) 105 % of control; (dose: 15.0 mg/kg/injection, schedule: Q01DX001 (ip), vehicle: saline) 101 % of control; (dose: 60.0 mg/kg/injection, schedule: Q01DX001 (ip), vehicle: saline) 222 % of control.
Turning to `Cc1ccc(SSc2ccc(C)cc2[N+](=O)[O-])c([N+](=O)[O-])c1`, the T/C runs as follows: under setting [6], 100 % of control; under setting [8], 89 % of control; under setting [10], 86 % of control and 93 % of control.
`O=C(CC(NC(=O)OCc1ccccc1)c1nn[nH]n1)OCc1ccccc1` (stereo not drawn): the T/C by setting is: (dose: 66.0 mg/kg/injection, schedule: Q01DX009 (ip), vehicle: saline with Tween-80) 99 % of control; under setting [1], 107 % of control; (dose: 150.0 mg/kg/injection, schedule: Q01DX009 (ip), vehicle: saline with Tween-80) 100 % of control.
With `O=C(CN1CCCCC1)Nc1cccc(C(F)(F)F)c1`, the T/C is, setting by setting: under setting [10], 87 % of control; under setting [12], 89 % of control.
Take `[Cl][Pt+2][Cl].[NH-]c1ccc([N+](=O)[O-])cc1[NH-]`: the T/C was 103 % of control (dose: 5.0 mg/kg/injection, schedule: Q01DX009 (ip), vehicle: saline with Tween-80); 107 % of control (dose: 10.0 mg/kg/injection, schedule: Q01DX009 (ip), vehicle: saline with Tween-80); 107 % of control (dose: 20.0 mg/kg/injection, schedule: Q01DX009 (ip), vehicle: saline with Tween-80); 118 % of control (dose: 40.0 mg/kg/injection, schedule: Q01DX009 (ip), vehicle: saline with Tween-80); 115 % of control (dose: 80.0 mg/kg/injection, schedule: Q01DX009 (ip), vehicle: saline with Tween-80).
Regarding `CCCC(C(=O)O)C1=CCCC1` (stereo not drawn), the T/C was 115 % of control under setting [4], 112 % of control under setting [5] and 103 % of control under setting [1].
Regarding `CC[N+](CC)(CC)CCC[n+]1ccc(/C=N\O)cc1`, the T/C is, setting by setting: under setting [14], 111 % of control; under setting [15], 111 % of control; under setting [16], 111 % of control.
On to `CCC(C)C(C(=O)OC1CCN(C)CC1)c1ccccc1` (stereo not drawn), for which the T/C is, setting by setting: under setting [14], 101 % of control; under setting [15], 90 % of control.
Take `[O-][n+]1c(CN2CCCCC2)nc2cccc3c2c1-c1ccccc1-3`: the T/C by setting is: under setting [8], 102 % of control; under setting [10], 119 % of control; under setting [12], 113 % of control.
For `CC1NCCOC1c1ccccc1` (stereo not drawn), the T/C is 100 % of control (dose: 3.12 mg/kg/injection, schedule: Q01DX009 (ip), vehicle: saline); 97 % of control (dose: 6.25 mg/kg/injection, schedule: Q01DX009 (ip), vehicle: saline); 104 % of control under setting [17]; 90 % of control and 124 % of control under setting [14]; 90 % of control and 113 % of control under setting [15]; 111 % of control under setting [16].
For `COc1cc(C2N(c3ccccc3)CCN2c2ccccc2)cc(OC)c1OC`, the T/C was 106 % of control under setting [10], 103 % of control under setting [12] and 96 % of control under setting [13].
As for `Oc1ccccc1OCc1ccccc1`, the T/C runs as follows: under setting [11], 107 % of control; under setting [18], 105 % of control; under setting [19], 105 % of control.
With `CCN(CC)N=Nc1ccccc1-c1nc(N)c2ccccc2n1`, the T/C by setting is: under setting [7], 94 % of control; under setting [9], 109 % of control; under setting [11], 96 % of control; under setting [18], 103 % of control.
As to `CCOc1ccccc1NC(=O)Nc1cccc(Cl)c1`, the T/C runs as follows: under setting [10], 106 % of control; under setting [12], 96 % of control; under setting [13], 106 % of control.
For `CC(=O)Nc1ccc(OC(=O)Nc2ccccc2Cl)cc1`, the T/C is, setting by setting: under setting [11], 93 % of control; under setting [18], 113 % of control; under setting [19], 106 % of control.
Take `OCc1ccccc1`: the T/C runs as follows: under setting [1], 94 % of control; under setting [2], 100 % of control; under setting [3], 108 % of control.
With `OC(CCl)Cc1ccccc1` (stereo not drawn), the T/C is 102 % of control under setting [17], 95 % of control under setting [14] and 100 % of control under setting [15].
On to `CN(C)CC/C=C1\c2ccccc2C(C)(C)c2ccc(Cl)cc21`, for which the T/C under setting [4] is 118 % of control and the T/C under setting [5] is 92 % of control.
Regarding `C[CH2][Pb]([CH2]C)([CH2]C)[O]C(=O)COC`, the T/C reads like this: (dose: 1.56 mg/kg/injection, schedule: Q01DX009 (ip), vehicle: Klucel (hydroxypropylcellulose) (HPC)) 96 % of control; (dose: 3.13 mg/kg/injection, schedule: Q01DX009 (ip), vehicle: Klucel (hydroxypropylcellulose) (HPC)) 105 % of control.
Consider `CCCCCCCCCC(O)CC` (stereo not drawn), for which the T/C runs as follows: under setting [10], 98 % of control; under setting [12], 96 % of control; under setting [13], 100 % of control.
Consider `CCCCCCCCC1CCC(N)CC1` (stereo not drawn), for which the T/C is, setting by setting: under setting [8], 93 % of control; under setting [10], 86 % of control.
On to `O=C(Nc1ccc(C(=O)Nc2cc(S(=O)(=O)O)cc3cc(S(=O)(=O)O)cc(O)c23)cc1)c1ccccc1`, for which the T/C is 94 % of control under setting [1], 89 % of control under setting [2] and 89 % of control under setting [3].
As for `CCC(=O)Oc1ccc(OCc2ccccc2)cc1`, the T/C runs as follows: under setting [11], 95 % of control; under setting [18], 86 % of control; under setting [19], 97 % of control.
For the molecule `CCC1(CC)OC2=C(CC(C#N)(C#N)C(C#N)(C#N)C2)O1`, the T/C (dose: 2.5 mg/kg/injection, schedule: Q04DX003 (ip), vehicle: Klucel (hydroxypropylcellulose) (HPC)) was 96 % of control; the T/C (dose: 3.12 mg/kg/injection, schedule: Q04DX003 (ip), vehicle: Klucel (hydroxypropylcellulose) (HPC)) is 100 % of control; the T/C (dose: 4.0 mg/kg/injection, schedule: Q04DX003 (ip), vehicle: Klucel (hydroxypropylcellulose) (HPC)) is 98 % of control; the T/C (dose: 9.5 mg/kg/injection, schedule: Q04DX003 (ip), vehicle: Klucel (hydroxypropylcellulose) (HPC)) was 96 % of control; the T/C (dose: 12.5 mg/kg/injection, schedule: Q04DX003 (ip), vehicle: Klucel (hydroxypropylcellulose) (HPC)) was 88 % of control.
Turning to `Cc1c(Cl)cccc1NC(=O)c1ccccc1C(=O)O`, the T/C under setting [10] is 100 % of control and the T/C under setting [12] is 102 % of control.
As to `CCN(N=Nc1ccc(C)cc1)N=Nc1ccc(C)cc1`, the T/C reads like this: under setting [10], 90 % of control; under setting [12], 96 % of control; under setting [13], 86 % of control.
